In patent US7319098B2, “1,3-dioxoisoindole derivatives having selective antagonism of T-type calcium channel” (Korea Institute of Science and Technology, priority 2006, dated 2008):

These compounds were tested against T1, α1G T-type Ca2+ channels (Homo sapiens, UniProt O43497) (assay: Screening of activity against T-type calcium channel with FDSS6000 (fluorescence, KCl-induced [Ca2+]i increase)). Settings: 10 μM; HEK293 cells expressing α1G and Kir2.1; NA: Not Active; read-out: Inhibitory effect (%) of T-type calcium channel, Inhibition (%).
T1 construct: expressed in transfected cells; host or cells: HEK293 cells stably expressing α1G and Kir2.1
T1 sequence (O43497 whole entry): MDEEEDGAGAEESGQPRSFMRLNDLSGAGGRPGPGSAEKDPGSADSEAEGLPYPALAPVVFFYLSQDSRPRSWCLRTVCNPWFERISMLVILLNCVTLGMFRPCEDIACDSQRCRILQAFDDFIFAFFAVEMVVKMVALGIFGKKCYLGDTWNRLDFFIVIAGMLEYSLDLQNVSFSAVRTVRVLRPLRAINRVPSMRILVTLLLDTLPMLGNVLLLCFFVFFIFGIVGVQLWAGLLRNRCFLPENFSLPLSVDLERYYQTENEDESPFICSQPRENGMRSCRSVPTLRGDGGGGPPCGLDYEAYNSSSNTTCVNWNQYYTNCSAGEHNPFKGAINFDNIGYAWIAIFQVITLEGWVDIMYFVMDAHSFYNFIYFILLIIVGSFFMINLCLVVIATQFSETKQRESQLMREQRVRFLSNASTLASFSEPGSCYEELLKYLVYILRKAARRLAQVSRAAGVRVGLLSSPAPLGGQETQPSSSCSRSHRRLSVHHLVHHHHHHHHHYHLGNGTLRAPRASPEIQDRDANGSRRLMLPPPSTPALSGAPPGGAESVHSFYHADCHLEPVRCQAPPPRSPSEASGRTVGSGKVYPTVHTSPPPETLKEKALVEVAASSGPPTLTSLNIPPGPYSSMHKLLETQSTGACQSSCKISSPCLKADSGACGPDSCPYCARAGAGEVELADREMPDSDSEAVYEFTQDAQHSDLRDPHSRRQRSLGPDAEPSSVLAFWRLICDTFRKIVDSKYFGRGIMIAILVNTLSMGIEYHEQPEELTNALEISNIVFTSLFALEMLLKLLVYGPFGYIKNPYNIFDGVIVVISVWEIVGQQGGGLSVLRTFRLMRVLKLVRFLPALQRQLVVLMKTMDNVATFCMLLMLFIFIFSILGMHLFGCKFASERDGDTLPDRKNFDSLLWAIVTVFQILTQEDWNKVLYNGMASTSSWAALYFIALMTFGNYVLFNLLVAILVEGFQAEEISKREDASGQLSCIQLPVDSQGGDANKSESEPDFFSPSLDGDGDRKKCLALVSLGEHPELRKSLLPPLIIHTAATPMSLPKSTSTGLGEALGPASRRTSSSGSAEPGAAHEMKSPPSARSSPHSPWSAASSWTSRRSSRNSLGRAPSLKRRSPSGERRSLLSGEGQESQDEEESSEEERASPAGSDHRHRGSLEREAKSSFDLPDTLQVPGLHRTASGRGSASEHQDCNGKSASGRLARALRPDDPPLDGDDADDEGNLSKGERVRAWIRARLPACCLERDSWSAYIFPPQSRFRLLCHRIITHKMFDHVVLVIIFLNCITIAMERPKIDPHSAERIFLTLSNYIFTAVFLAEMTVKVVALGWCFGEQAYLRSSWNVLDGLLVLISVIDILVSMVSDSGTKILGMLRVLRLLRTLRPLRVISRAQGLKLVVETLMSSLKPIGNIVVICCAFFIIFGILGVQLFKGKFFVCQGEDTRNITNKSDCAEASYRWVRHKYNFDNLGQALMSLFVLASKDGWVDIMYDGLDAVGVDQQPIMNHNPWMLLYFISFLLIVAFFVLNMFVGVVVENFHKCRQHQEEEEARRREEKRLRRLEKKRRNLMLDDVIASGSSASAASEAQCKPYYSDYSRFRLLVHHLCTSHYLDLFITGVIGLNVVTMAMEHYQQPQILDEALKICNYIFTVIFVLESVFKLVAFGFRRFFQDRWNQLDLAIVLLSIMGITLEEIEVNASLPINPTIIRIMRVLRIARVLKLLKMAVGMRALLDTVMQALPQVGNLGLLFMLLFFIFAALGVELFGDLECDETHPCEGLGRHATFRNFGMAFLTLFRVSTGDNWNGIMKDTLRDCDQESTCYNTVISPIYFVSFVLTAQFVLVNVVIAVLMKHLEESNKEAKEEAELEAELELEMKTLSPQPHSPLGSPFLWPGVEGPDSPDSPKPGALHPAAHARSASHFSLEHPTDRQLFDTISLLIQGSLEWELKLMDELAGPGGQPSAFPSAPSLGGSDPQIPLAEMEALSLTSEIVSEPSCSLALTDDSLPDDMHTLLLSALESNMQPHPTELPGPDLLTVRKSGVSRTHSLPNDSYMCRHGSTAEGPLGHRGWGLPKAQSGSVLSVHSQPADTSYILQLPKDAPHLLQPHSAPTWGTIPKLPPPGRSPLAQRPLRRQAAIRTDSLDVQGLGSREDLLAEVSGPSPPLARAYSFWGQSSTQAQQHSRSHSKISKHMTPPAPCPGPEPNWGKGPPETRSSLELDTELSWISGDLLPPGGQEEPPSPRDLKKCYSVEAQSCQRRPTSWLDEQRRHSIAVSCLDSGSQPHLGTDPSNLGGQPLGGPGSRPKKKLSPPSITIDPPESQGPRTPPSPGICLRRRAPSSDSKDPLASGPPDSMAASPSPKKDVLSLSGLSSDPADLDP
Assay type: cell-based
Procedure: Meanwhile, the antagonistic activity of the novel compound of Formula (1) herein against T-type calcium channel was tested as described below. The synthesized compounds were tested for the activity against T-type calcium channel with FDSS6000. Compounds with good activity were selected and IC50 values were exactly obtained by using electrophysiological whole cell patch clamp method. HEK293 cells which stably express both α1G and Kir2.1 subunits were grown in Dulbecco's modified Eagle's medium supplemented with 10% (v/v) fetal bovine serum, penicillin (100 U/mL), streptomycin (100 μg/mL), geneticin (500 μg/mL), and +puromycin (I μg/mL) at 37° C. in a humid atmosphere of 5% CO2 and 95% air. Cells were seeded into 96-well black wall clear bottom plates at a density of 4×10^4 cells/well and were used the next day for high-throughput screening (HTS) FDSS6000 assay. For FDSS6000 assay, cells were incubated for 60 min at room temperature with 5 μM fluo3/AM and 0.001% Pluronic F-127 in a HEPES-buffered solution composed of (in mM): 115 NaCl, 5.4 KCl, 0.8 MgCl2, 1.8 CaCl2, 20 HEPES, 13.8 glucose (pH 7.4). During the fluorescence-based FDSS6000 assay, cells in HEPES-buffered solution containing 10 mM CaCl2 were pretreated with a certain concentration of test compounds and then treated with high concentration of KCl ([…]). α1G T-type Ca^2+ channels were activated by using high concentration of KCl (70 mM) and the increase in [Ca^2+]i by KCl-induced depolarization was detected. During the whole procedure, cells were washed using the BIO-TEK 96-well washer. All data were collected and analyzed using FDSS6000 and related software (Hamamatsu, Japan). The IC50 results of examining the inhibitory effects of the compounds herein selected with FDSS6000 on the calcium influx through the T-type calcium channel are provided in TABLEs 1 and 2.

| Structure (SMILES) | inhibition at 10 µM [%] |
| --- | --- |
| Cc1cccc(N2C(=O)c3ccc(C(=O)NCCN4CCCC4)cc3C2=O)c1 [Compound 35, 1-{2-[(1,3-dioxo-2-m-tolyl-2,3-dihydro-1H-isoindol-5-carbonyl)-amino]-ethyl}-pyrrolidinium chloride] | 4.7 |
| O=C(NCCCN1CCCC1)c1ccc2c(c1)C(=O)N(Cc1cccc(Cl)c1)C2=O [Compound 84, 1-(3-{[2-(3-chloro-benzyl)-1,3-dioxo-2,3-dihydro-1H-isoindol-5-carbonyl]-amino}-propyl)-pyrrolidinium chloride] | 30.4 |
| Cc1ccc(CN2C(=O)c3ccc(C(=O)NCCCN4CCCCC4)cc3C2=O)cc1 [Compound 106, 1-(3-{[2-(4-methyl-benzyl)-1,3-dioxo-2,3-dihydro-1H-isoindol-5-carbonyl]-amino}-propyl)-piperidinium chloride] | 40.1 |
| Cc1cccc(CN2C(=O)c3ccc(C(=O)NCCN4CCOCC4)cc3C2=O)c1 [Compound 103, 4-(2-{[2-(3-methyl-benzyl)-1,3-dioxo-2,3-dihydro-1H-isoindol-5-carbonyl]-amino}-ethyl)-4-morpholinium chloride] | 21.1 |
| Cc1ccccc1CN1C(=O)c2ccc(C(=O)NCCN3CCCC3)cc2C1=O [Compound 95, 1-(2-{[2-(2-methyl-benzyl)-1,3-dioxo-2,3-dihydro-1H-isoindol-5-carbonyl]-amino}-ethyl)-pyrrolidinium chloride] | 15.7 |

Same assay, conditions: 100 μM; HEK293 cells expressing α1G and Kir2.1; read-out: Inhibitory effect (%) of T-type calcium channel, Inhibition (%)

| Structure (SMILES) | inhibition at 100 µM [%] |
| --- | --- |
| Cc1ccccc1CN1C(=O)c2ccc(C(=O)NCCCN3CCOCC3)cc2C1=O [Compound 98, 4-(3-{[2-(2-methyl-benzyl)-1,3-dioxo-2,3-dihydro-1H-isoindol-5-carbonyl]-amino}-propyl)-4-morpholinium chloride] | 55.2 |
| O=C(NCCCN1CCCC1)c1ccc2c(c1)C(=O)N(Cc1ccccc1)C2=O [Compound 52, 1-{3-[(2-benzyl-1,3-dioxo-2,3-dihydro-1H-isoindol-5-carbonyl)-amino]-propyl}-pyrrolidinium chloride] | 45.8 |
| CC1CCCCN1CCCNC(=O)c1ccc2c(c1)C(=O)N(Cc1ccccc1)C2=O (stereo not shown) [Compound 50, 1-{3-[(2-benzyl-1,3-dioxo-2,3-dihydro-1H-isoindol-5-carbonyl)-amino]-propyl}-2-methyl-piperidinium chloride] | 69.6 |
| O=C(NCCCN1CCOCC1)c1ccc2c(c1)C(=O)N(c1ccccc1F)C2=O [Compound 12, 4-(3-{[2-(2-fluoro-phenyl)-1,3-dioxo-2,3-dihydro-1H-isoindol-5-carbonyl]-amino}-propyl)-4-morpholinium chloride] | 21.1 |
| COc1cccc(CN2C(=O)c3ccc(C(=O)NCCCN4CCOCC4)cc3C2=O)c1 [Compound 122, 4-(3-{[2-(3-methoxy-benzyl)-1,3-dioxo-2,3-dihydro-1H-isoindol-5-carbonyl]-amino}-propyl)-4-morpholinium chloride] | 56.6 |
| O=C(NCCCN1CCCC1)c1ccc2c(c1)C(=O)N(Cc1ccccc1F)C2=O [Compound 58, 1-(3-{[2-(2-fluoro-benzyl)-1,3-dioxo-2,3-dihydro-1H-isoindol-5-carbonyl]-amino}-propyl)-pyrrolidinium chloride] | 70.6 |
| COc1ccccc1CN1C(=O)c2ccc(C(=O)NCCCN3CCCC3)cc2C1=O [Compound 114, 1-(3-{[2-(2-methoxy-benzyl)-1,3-dioxo-2,3-dihydro-1H-isoindol-5-carbonyl]-amino}-propyl)-pyrrolidinium chloride] | 53 |
| CC1CCCCN1CCCNC(=O)c1ccc2c(c1)C(=O)N(c1cccc(F)c1)C2=O (stereo not shown) [Compound 14, 1-(3-{[2-(3-fluoro-phenyl)-1,3-dioxo-2,3-dihydro-1H-isoindol-5-carbonyl]-amino}-propyl)-2-methyl-piperidinium chloride] | 44.2 |
| O=C(NCCCN1CCCC1)c1ccc2c(c1)C(=O)N(Cc1cccc(F)c1)C2=O [Compound 64, 1-(3-{[2-(3-fluoro-benzyl)-1,3-dioxo-2,3-dihydro-1H-isoindol-5-carbonyl]-amino}-propyl)-pyrrolidinium chloride] | 65.9 |
| CC1CCCCN1CCCNC(=O)c1ccc2c(c1)C(=O)N(c1ccc(F)cc1)C2=O (stereo not shown) [Compound 20, 1-(3-{[2-(4-fluoro-phenyl)-1,3-dioxo-2,3-dihydro-1H-isoindol-5-carbonyl]-amino}-propyl)-2-methyl-piperidinium chloride] | 44.7 |
| Cc1ccc(N2C(=O)c3ccc(C(=O)NCCN4CCCCC4)cc3C2=O)cc1 [Compound 39, 1-{2-[(1,3-dioxo-2-p-tolyl-2,3-dihydro-1H-isoindol-5-carbonyl)-amino]-ethyl}-piperidinium chloride] | 39.4 |
| COc1ccc(CN2C(=O)c3ccc(C(=O)NCCN4CCCC4)cc3C2=O)cc1 [Compound 125, 1-(2-{[2-(4-methoxy-benzyl)-1,3-dioxo-2,3-dihydro-1H-isoindol-5-carbonyl]-amino}-ethyl)-pyrrolidinium chloride] | 65.2 |
| COc1ccccc1CN1C(=O)c2ccc(C(=O)NCCCN3CCCCC3C)cc2C1=O (stereo not shown) [Compound 112, 1-(3-{[2-(2-methoxy-benzyl)-1,3-dioxo-2,3-dihydro-1H-isoindol-5-carbonyl]-amino}-propyl)-2-methyl-piperidinium chloride] | 75.1 |
| COc1cccc(CN2C(=O)c3ccc(C(=O)NCCN4CCCC4)cc3C2=O)c1 [Compound 119, 1-(2-{[2-(3-methoxy-benzyl)-1,3-dioxo-2,3-dihydro-1H-isoindol-5-carbonyl]-amino}-ethyl)-pyrrolidinium chloride] | 56.3 |
| O=C(NCCN1CCCCC1)c1ccc2c(c1)C(=O)N(c1cccc(F)c1)C2=O [Compound 13, 1-(2-{[2-(3-fluoro-phenyl)-1,3-dioxo-2,3-dihydro-1H-isoindol-5-carbonyl]-amino}-ethyl)-piperidinium chloride] | 43 |
| COc1ccc(CN2C(=O)c3ccc(C(=O)NCCCN4CCCCC4C)cc3C2=O)cc1 (stereo not shown) [Compound 124, 1-(3-{[2-(4-methoxy-benzyl)-1,3-dioxo-2,3-dihydro-1H-isoindol-5-carbonyl]-amino}-propyl)-2-methyl-piperidinium chloride] | 77.7 |
| O=C(NCCN1CCCC1)c1ccc2c(c1)C(=O)N(Cc1ccccc1)C2=O [Compound 51, 1-{2-[(2-benzyl-1,3-dioxo-2,3-dihydro-1H-isoindol-5-carbonyl)-amino]-ethyl}-pyrrolidinium chloride] | 48.4 |
| CC1CCCCN1CCCNC(=O)c1ccc2c(c1)C(=O)N(Cc1ccccc1F)C2=O (stereo not shown) [Compound 56, 1-(3-{[2-(2-fluoro-benzyl)-1,3-dioxo-2,3-dihydro-1H-isoindol-5-carbonyl]-amino}-propyl)-2-methyl-piperidinium chloride] | 78.8 |
| O=C(NCCN1CCCCC1)c1ccc2c(c1)C(=O)N(c1ccc(F)cc1)C2=O [Compound 19, 1-(2-{[2-(4-fluoro-phenyl)-1,3-dioxo-2,3-dihydro-1H-isoindol-5-carbonyl]-amino}-ethyl)-piperidinium chloride] | 45.7 |
| O=C(NCCN1CCCCC1)c1ccc2c(c1)C(=O)N(c1ccc(Cl)cc1)C2=O [Compound 27, 1-(2-{[2-(4-chloro-phenyl)-1,3-dioxo-2,3-dihydro-1H-isoindol-5-carbonyl]-amino}-ethyl)-piperidinium chloride] | 44.5 |
